# Results as given in ChEMBL document CHEMBL1138758, “Efficient method for high-throughput virtual screening based on flexible docking: discovery of novel acetylcholinesterase inhibitors” (J Med Chem, 2004).
# Assay: Inhibitory activity towards acetylcholine esterase (AChE)
# Parameters: species or system Tetronarce californica
row,Structure (SMILES),IC50
1,COc1cc(N)c(Cl)cc1C(=O)NC1CCN(Cc2ccccc2)CC1 [CLEBOPRIDE],0.89 µM
2,C/C(=N/O)c1ccc(Cl)c(NC(=O)c2c(-c3ccccc3Cl)noc2C)c1,6.7 µM
3,CCCc1cc(-n2cccn2)ccc1C(=O)ONC(=N)c1ccc(C(F)(F)F)cc1,13 µM
4,O=C(Nc1cccc(C2=NCCN2)c1)Nc1cccc(C2=NCCN2)c1 [IMIDOCARB],0.59 µM
5,CN(C)c1ccc(-c2c3cc(O)c(=O)cc-3oc3cc(O)c(O)cc23)cc1,22 µM
6,Cc1nc(N)ncc1-c1nnnn1-c1ccc(-c2ccccc2)cc1,27 µM
7,O=C(CC1S/C(=N/c2ccc(C3CCCCC3)cc2)NC1=O)Nc1ccc(OC(F)(F)F)cc1 (centres undefined),2.9 µM
8,Cc1c(/N=C/c2ccccc2O)cc2c(c1N)C(C)(C)CC2(C)C,16 µM
9,CNC(=O)Oc1ccc2c(c1)[C@]1(C)CCN(C)[C@@H]1N2C [PHYSOSTIGMINE],0.36 µM
10,Cc1cc(C2(c3cc(C)c(O)c(C)c3)CCCCC2)cc(C)c1O,15 µM
11,COc1ccc(/N=C/c2cn(-c3ccc(OC)cc3)cc2/C=N/c2ccc(OC)cc2)cc1,14 µM
12,Fc1ccc(N(Cc2ccc3c(c2)OCO3)C(=S)Nc2cccc(C(F)(F)F)c2)cc1,8 µM
13,O=C(O[C@@H]1Cc2c(O)cc(O)cc2O[C@@H]1c1ccc(O)c(O)c1)c1cc(O)c(O)c(O)c1 [EPICATECHIN GALLATE],28 µM
14,CC(Cc1ccc(O)cc1)C1CCC(C)C(c2ccc(O)cc2)C1 (centres undefined),0.62 µM
